Experimental findings from patent US20140066431A1, “Benzoxazepines as Inhibitors of PI3K/mTOR and Methods of Their Use and Manufacture” (Exelixis, Inc., priority 2010, published 2014) are described below.

Assay [1] has as its target PI3Kγ (Homo sapiens, UniProt P48736). Briefly: PI3K biochemical assay, PI3Kγ. Conditions: PIP2 as substrate. As to the method:
PI3Kα activity is measured as the percent of ATP consumed following the kinase reaction using luciferase-luciferin-coupled chemiluminescence. Reactions were conducted in 384-well white, medium binding microtiter plates (Greiner). Kinase reactions were initiated by combining test compounds, ATP, substrate (PIP2), and kinase in a 20 μL volume in a buffer solution. The standard PI3Kalpha assay buffer is composed 50 mM Tris, pH 7.5, 1 mM EGTA, 10 mM MgCl2, 1 mM DTT and 0.03% CHAPS. The standard assay concentrations for enzyme, ATP, and substrate are 1.5 nM, 1 μM, and 10 μM, respectively. The reaction mixture was incubated at ambient temperature for approximately 2 h. Following the kinase reaction, a 10 μL aliquot of luciferase-luciferin mix (Promega Kinase-Glo) was added and the chemiluminescence signal measured using a Victor2 plate reader (Perkin Elmer). Total ATP consumption was limited to 40-60% and IC50 values of control compounds correlate well with literature references. Substituting PI3Kα with PI3Kβ, PI3Kγ, or PI3Kδ, the inhibitory activity of the compounds for the other isoforms of I3K were measured.

Assay [2] deals with MCF-7 cells (PI3Kα-E545K mutant). Briefly: pAKT (T308) ELISA assay, MCF-7. The settings on record: Homo sapiens, MCF7. The format is cell-based. As to the method: MCF-7 cells (ATCC) cells were seeded at 24000 cells per well in 96-well plates (Corning, 3904) in DMEM (Cellgro) containing 10% FBS (Cellgro), 1% NEAA (Cellgro) and 1% penicillin-streptomycin (Cellgro). Cells were incubated at 37° C., 5% CO2 for 48 h, and the growth medium was replaced with serum-free DMEM or in medium containing 0.4% BSA. Serial dilutions of the test compound in 0.3% DMSO (vehicle) were added to the cells and incubated for 3 h. At the end of the incubation period, cells were stimulated for 10 minutes by the addition of L-IGF (Sigma, I-1271) at a final concentration of 100 ng/ml. Afterwards, media was discarded from cell plates and 110 μl/well of cold lysis buffer (see table below) were added. Cell plates were incubated on ice and then put on shaker in 4° C. cold room for 1 h. Two capture plates (Thermo Scientific, Reacti-bind plate, 15042) were prepared for each cell plate by pre-coating with capture Akt antibody from the two sandwich ELISA antibody pairs used (Cell Signaling Technology 7142 and 7144). The Akt capture antibodies were diluted 1:100 in PBS and […] of diluted capture antibody was added per well. […] After 1 minute incubation, chemiluminescence was read on a Wallac Victor2 1420 multilabel counter. IC50 values were determined based on the ratio of pAkt(T308) to total Akt1 signal for compound treated wells, normalized to the DMSO-treated control wells. […]

Assay [3] concerns PC3 (PTEN null) cellular model. The assay is described as follows: pAKT (T308) ELISA assay, PC3. Conditions: Homo sapiens; IGF1 stimulation. The format is cell-based. As to the method:
Cells were incubated at 37° C., 5% CO2 for 48 h (except MDA-MB-453 cells which were cultured in the absence of CO2). Compounds were serially diluted in DMSO and subsequently diluted in serum-free DMEM. Test compounds were added to cells in serum-free DMEM at a final concentration of 0.3% DMSO and incubated for 3 h. Cells were lysed with 130 μL of ice-cold RIPA lysis buffer (50 mM Tris-HCl, pH 7.5; 0.5% sodium deoxycholic acid; 1% Triton X-100; 0.1% SDS; 150 mM NaCl) with protease and phosphatase inhibitors (1 mM EDTA, 1 mM NaF, 20 mM β-glycerophosphate, 1 mM Na-orthovanadate, Complete-Mini EDTA-free, Roche, 11836170001, and Phosphatase Inhibitor Cocktail I, Sigma, P2850), directly in 96-well plates. Cells were lysed on ice for 60-120 min at 4° C. The supernatants were added directly to capture ELISA plates previously pre-coated with rabbit anti-AKT capture antibody. ELISA assays for pAKT(T308) and total AKT were performed with the pAKT(T308) ELISA kit (Cell Signaling Technology, 7144) and AKT1 ELISA kit (Cell Signaling Technology, 7142). For the pAKT(T308) ELISA, 85 μL of cell lysate was added to each well. For the total AKT1 ELISA, 15 μL of cell lysate and 85 μL of Starting Block buffer (Pierce, 37543) were added to each well.

Where two headings read alike, the source gives them in different places. Some results are limits rather than exact numbers.

Sequence of PI3Kγ (P48736 whole entry): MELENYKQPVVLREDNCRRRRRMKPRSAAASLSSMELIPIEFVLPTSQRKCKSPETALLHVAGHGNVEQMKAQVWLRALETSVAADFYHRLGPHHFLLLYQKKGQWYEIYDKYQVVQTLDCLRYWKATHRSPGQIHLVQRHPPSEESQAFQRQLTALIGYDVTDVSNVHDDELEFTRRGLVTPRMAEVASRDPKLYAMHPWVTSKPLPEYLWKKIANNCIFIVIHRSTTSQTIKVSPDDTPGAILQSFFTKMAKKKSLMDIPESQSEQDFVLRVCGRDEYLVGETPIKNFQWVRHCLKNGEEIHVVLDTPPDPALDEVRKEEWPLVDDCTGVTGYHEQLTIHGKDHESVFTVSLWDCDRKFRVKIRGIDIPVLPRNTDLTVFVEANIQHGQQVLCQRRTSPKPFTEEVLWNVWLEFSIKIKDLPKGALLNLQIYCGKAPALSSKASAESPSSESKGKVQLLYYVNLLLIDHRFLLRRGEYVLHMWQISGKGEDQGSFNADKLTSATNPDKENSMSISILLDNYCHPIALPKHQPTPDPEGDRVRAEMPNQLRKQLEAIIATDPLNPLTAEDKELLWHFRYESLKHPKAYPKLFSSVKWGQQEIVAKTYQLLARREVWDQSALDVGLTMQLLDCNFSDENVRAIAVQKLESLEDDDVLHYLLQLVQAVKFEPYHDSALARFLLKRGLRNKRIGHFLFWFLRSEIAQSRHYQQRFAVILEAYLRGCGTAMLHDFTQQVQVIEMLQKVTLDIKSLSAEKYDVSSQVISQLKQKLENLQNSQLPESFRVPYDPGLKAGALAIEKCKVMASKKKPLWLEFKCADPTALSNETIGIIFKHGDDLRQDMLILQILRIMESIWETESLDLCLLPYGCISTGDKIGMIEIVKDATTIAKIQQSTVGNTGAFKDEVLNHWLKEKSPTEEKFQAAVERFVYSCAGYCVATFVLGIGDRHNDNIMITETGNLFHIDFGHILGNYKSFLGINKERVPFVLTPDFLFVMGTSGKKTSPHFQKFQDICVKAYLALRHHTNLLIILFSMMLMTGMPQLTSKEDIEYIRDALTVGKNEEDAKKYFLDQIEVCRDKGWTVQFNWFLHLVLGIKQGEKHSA

As for `Cc1cc(C(C)Nc2ccccc2)c2nc(N3CCOCC3)cc(=O)n2c1` (stereo not shown) [TGX-221, 7-methyl-2-(4-morpholinyl)-9-[1-(phenylamino)ethyl]-4H-pyrido[1,2-a]pyrimidin-4-one], the IC50 was 1.68 µM in assay [1]; 1.76 µM in assay [2] (IGF1 stimulation, Table 5, read-out: pAKT (T308) IC50 MCF-7 PI3Kα E545K IGF1); more than 30 µM in assay [2] (PI3KαE545K, Table 6, read-out: Cellular pAKT (T308) IC50 MCF-7); 11.2 µM in assay [3].
